US9683019B2, “Cyclic polypeptides for the treatment of heart failure” (priority 2013, dated 2017)
Where a SMILES comes first, the peptide text is derived from it. Bridges are numbered along the chain shown (N, C = ends). [ ]: non-standard residue; d: D form. The star is where a group is joined. 2Nal = N[C@@H](Cc1ccc2ccccc2c1)C(=O)O; N(Me)CH2CH2Ph = CN(CCc1ccccc1)*; pGlu = O=C1CC[C@@H](C(=O)O)N1; NHPhenethyl = c1ccc(CCN*)cc1; d(hCys) = N[C@H](CCS)C(=O)O; dNle = CCCC[C@@H](N)C(=O)O; hCys = N[C@@H](CCS)C(=O)O; Nle = CCCC[C@H](N)C(=O)O

Test: Surrogate Activity-Based Plasma Stability Assay
Format: in vitro ADME
Settings: rat
Description: Surrogate Activity-Based Plasma Stability Assay:
2) Calculate slope of value above and […]
For CCCC[C@H](NC(=O)[C@@H]1CCCN1C(=O)CNC(=O)[C@H](CCCCN)NC(=O)[C@@H]1CSSC[C@H](NC(C)=O)C(=O)N[C@@H](CCCNC(=N)N)C(=O)N2CCC[C@H]2C(=O)N[C@@H](CCCNC(=N)N)C(=O)N[C@@H](CC(C)C)C(=O)N[C@@H](CO)C(=O)N1)C(=O)N1CCC[C@H]1C(=O)N[C@@H](Cc1ccccc1)C(=O)O [Example 1, Ac-C*-R-P-R-L-S-C*-K-G-P-Nle-P-F-OH] (Ac-CRPRLSCKGP[Nle]PF-OH; disulfide 1-7), the half-life was 8 min.
CCCC[C@H](NC(=O)[C@@H]1CCCN1C(=O)CNC(=O)[C@H](CCCCN)NC(=O)[C@@H]1CSSC[C@H](NC(C)=O)C(=O)N[C@@H](CCCNC(=N)N)C(=O)N2CCC[C@H]2C(=O)N[C@@H](CCCNC(=N)N)C(=O)N[C@@H](CC(C)C)C(=O)N[C@@H](CO)C(=O)N1)C(=O)N1CCC[C@H]1C(=O)NCCc1ccccc1 [Example 2, Ac-C*-R-P-R-L-S-C*-K-G-P-Nle-P-NH(Phenethyl)] (Ac-CRPRLSCKGP[Nle]P-NHPhenethyl; disulfide 1-7) showed a half-life of 39 min.
CCCC[C@H](NC(=O)[C@@H]1CCCN1C(=O)CNC(=O)[C@H](CCCCN)NC(=O)[C@@H]1CSSC[C@H](NC(C)=O)C(=O)N[C@@H](CCCNC(=N)N)C(=O)N2CCC[C@H]2C(=O)N[C@@H](CCCNC(=N)N)C(=O)N[C@@H](CC(C)C)C(=O)N[C@@H](CO)C(=O)N1)C(=O)N1CCC[C@H]1C(N)=O [Example 4, Ac-C*-R-P-R-L-S-C*-K-G-P-Nle-P-NH2] (Ac-CRPRLSCKGP[Nle]P-NH2; disulfide 1-7) showed a half-life of 506 min.
In the case of CCCC[C@H](NC(=O)[C@@H]1CCCN1C(=O)CNC(=O)[C@H](CCCCN)NC(=O)[C@@H]1CSSC[C@H](NC(C)=O)C(=O)N[C@@H](CCCNC(=N)N)C(=O)N2CCC[C@H]2C(=O)N[C@@H](CCCNC(=N)N)C(=O)N[C@@H](CC(C)C)C(=O)N[C@@H](CO)C(=O)N1)C(=O)N1CCC[C@H]1C(=O)N[C@@H](Cc1ccc2ccccc2c1)C(=O)O [Example 5, Ac-C*-R-P-R-L-S-C*-K-G-P-Nle-P-Nal-OH] (Ac-CRPRLSCKGP[Nle]P[2Nal]-OH; disulfide 1-7), the half-life is reported as 5 min.
Compound CCCC[C@H](NC(=O)[C@@H]1CCCN1C(=O)CNC(=O)[C@H](CCCCN)NC(=O)[C@@H]1CCSSCC[C@H](NC(C)=O)C(=O)N[C@@H](CCCNC(=N)N)C(=O)N2CCC[C@H]2C(=O)N[C@@H](CCCNC(=N)N)C(=O)N[C@@H](CC(C)C)C(=O)N[C@@H](CO)C(=O)N1)C(=O)N1CCC[C@H]1C(=O)N[C@@H](Cc1ccccc1)C(=O)O [Example 7, Ac-hC*-R-P-R-L-S-hC*-K-G-P-Nle-P-F-OH] (Ac-[hCys]RPRLS[hCys]KGP[Nle]PF-OH; disulfide 1-7) has a half-life of 9 min.
CCCC[C@H](NC(=O)[C@@H]1CCCN1C(=O)CNC(=O)[C@H](CCCCN)NC(=O)[C@@H]1CSSC[C@H](NC(C)=O)C(=O)N[C@@H](CCCNC(=N)N)C(=O)N2CCC[C@H]2C(=O)N[C@@H](CCCNC(=N)N)C(=O)N[C@@H](CC(C)C)C(=O)N[C@@H](CO)C(=O)N1)C(=O)N1CCC[C@H]1C(=O)N[C@H](C)C(=O)O [Example 8, Ac-C*-R-P-R-L-S-C*-K-G-P-Nle-P-a-OH] (Ac-CRPRLSCKGP[Nle]P[dA]-OH; disulfide 1-7) gave a half-life of 662 min.
CCCC[C@H](NC(=O)[C@@H]1CCCN1C(=O)CNC(=O)[C@H](CCCCN)NC(=O)[C@@H]1CSSC[C@H](NC(C)=O)C(=O)N[C@@H](CCCNC(=N)N)C(=O)N2CCC[C@H]2C(=O)N[C@@H](CCCNC(=N)N)C(=O)N[C@@H](CC(C)C)C(=O)N[C@@H](CO)C(=O)N1)C(=O)N1CCC[C@H]1C(=O)N[C@H](Cc1ccccc1)C(=O)O [Example 10, Ac-C*-R-P-R-L-S-C*-K-G-P-Nle-P-f-OH] (Ac-CRPRLSCKGP[Nle]P[dF]-OH; disulfide 1-7) gave a half-life of 57.4 min.
Work on CCCC[C@H](NC(=O)[C@@H]1CCCN1C(=O)CNC(=O)[C@H](CCCCN)NC(=O)[C@@H]1CSSC[C@H](NC(C)=O)C(=O)N[C@@H](CCCNC(=N)N)C(=O)N2CCC[C@H]2C(=O)N[C@@H](CCCNC(=N)N)C(=O)N[C@@H](CC(C)C)C(=O)N[C@@H](CO)C(=O)N1)C(=O)NCCc1ccccc1 [Example 11, Ac-C*-R-P-R-L-S-C*-K-G-P-Nle-NH(Phenethyl)] (Ac-CRPRLSCKGP[Nle]-NHPhenethyl; disulfide 1-7) yielded a half-life of 32.8 min.
For CCCC[C@H](NC(=O)[C@@H]1CCCN1C(=O)CNC(=O)[C@H](CCCCN)NC(=O)[C@@H]1CCSSC[C@@H](NC(C)=O)C(=O)N[C@@H](CCCNC(=N)N)C(=O)N2CCC[C@H]2C(=O)N[C@@H](CCCNC(=N)N)C(=O)N[C@@H](CC(C)C)C(=O)N[C@@H](CO)C(=O)N1)C(=O)N1CCC[C@H]1C(=O)N[C@@H](Cc1ccccc1)C(=O)O [Example 13, Ac-c*-R-P-R-L-S-hC*-K-G-P-Nle-P-F-OH] (Ac-[dC]RPRLS[hCys]KGP[Nle]PF-OH; disulfide 1-7), the half-life was 10 min.
Work on CCCC[C@H](NC(=O)[C@@H]1CCCN1C(=O)CNC(=O)[C@H](CCCCN)NC(=O)[C@H]1CSSC[C@@H](NC(C)=O)C(=O)N[C@@H](CCCNC(=N)N)C(=O)N2CCC[C@H]2C(=O)N[C@@H](CCCNC(=N)N)C(=O)N[C@@H](CC(C)C)C(=O)N[C@@H](CO)C(=O)N1)C(=O)N1CCC[C@H]1C(=O)N[C@@H](Cc1ccccc1)C(=O)O [Example 14, Ac-c*-R-P-R-L-S-c*-K-G-P-Nle-P-F-OH] (Ac-[dC]RPRLS[dC]KGP[Nle]PF-OH; disulfide 1-7) yielded a half-life of 7.5 min.
In the case of CCCC[C@H](NC(=O)[C@@H]1CCCN1C(=O)CNC(=O)[C@H](CCCCN)NC(=O)[C@@H]1CCSSCC[C@@H](NC(C)=O)C(=O)N[C@@H](CCCNC(=N)N)C(=O)N2CCC[C@H]2C(=O)N[C@@H](CCCNC(=N)N)C(=O)N[C@@H](CC(C)C)C(=O)N[C@@H](CO)C(=O)N1)C(=O)N1CCC[C@H]1C(=O)N[C@@H](Cc1ccccc1)C(=O)O [Example 16, Ac-(D-hC)*-R-P-R-L-S-hC*-K-G-P-Nle-P-F-OH] (Ac-[d(hCys)]RPRLS[hCys]KGP[Nle]PF-OH; disulfide 1-7), the half-life is reported as 7 min.
In the case of CCCC[C@H](NC(=O)[C@@H]1CCCN1C(=O)CNC(=O)[C@H](CCCCN)NC(=O)[C@H]1CCSSCC[C@@H](NC(C)=O)C(=O)N[C@@H](CCCNC(=N)N)C(=O)N2CCC[C@H]2C(=O)N[C@@H](CCCNC(=N)N)C(=O)N[C@@H](CC(C)C)C(=O)N[C@@H](CO)C(=O)N1)C(=O)N1CCC[C@H]1C(=O)N[C@@H](Cc1ccccc1)C(=O)O [Example 17, Ac-(D-hC)*-R-P-R-L-S-(D-hC)*-K-G-P-Nle-P-F-OH] (Ac-[d(hCys)]RPRLS[d(hCys)]KGP[Nle]PF-OH; disulfide 1-7), the half-life is reported as 11.4 min.
Compound CC(=O)N[C@@H]1CCSSCC[C@@H](C(=O)N[C@@H](CCCCN)C(=O)NCC(=O)N2CCC[C@H]2C(=O)N[C@H](Cc2ccccc2)C(=O)N[C@H](C)C(=O)N[C@H](Cc2ccccc2)C(=O)O)NC(=O)[C@H](CO)NC(=O)[C@H](CC(C)C)NC(=O)[C@H](CCCNC(=N)N)NC(=O)[C@@H]2CCCN2C(=O)[C@H](CCCNC(=N)N)NC1=O [Example 18, Ac-(D-hC)*-R-P-R-L-S-(hC)*-K-G-P-f-a-f-OH] (Ac-[d(hCys)]RPRLS[hCys]KGP[dF][dA][dF]-OH; disulfide 1-7) has a half-life of 50 min.
For CCCC[C@@H](NC(=O)[C@@H]1CCCN1C(=O)CNC(=O)[C@H](CCCCN)NC(=O)[C@@H]1CCSSC[C@@H](NC(C)=O)C(=O)N[C@@H](CCCNC(=N)N)C(=O)N2CCC[C@H]2C(=O)N[C@@H](CCCNC(=N)N)C(=O)N[C@@H](CC(C)C)C(=O)N[C@@H](CO)C(=O)N1)C(=O)N[C@H](C)C(=O)N[C@H](Cc1ccccc1)C(=O)O [Example 19, Ac-c-R-P-R-L-S-(hC)-K-G-P-(D-Nle)-a-f-OH] (Ac-[dC]RPRLS[hCys]KGP[dNle][dA][dF]-OH; disulfide 1-7 (inferred)), the half-life was 50 min.
With CCCC[C@H](NC(=O)[C@@H]1CCCN1C(=O)CNC(=O)[C@H](CCCCN)NC(=O)[C@@H]1CSSC[C@H](NC(=O)[C@H](CCCNC(=N)N)NC(=O)[C@@H]2CCC(=O)N2)C(=O)N[C@@H](CCCNC(=N)N)C(=O)N[C@@H](CC(C)C)C(=O)N[C@@H](CO)C(=O)N1)C(=O)N1CCC[C@H]1C(=O)N[C@@H](Cc1ccccc1)C(=O)O [Example 20, pE-R-C*-R-L-S-C*-K-G-P-Nle-P-F-OH] ([pGlu]RCRLSCKGP[Nle]PF-OH; disulfide 3-7) the half-life was 11.9 min.
For CCCC[C@@H](NC(=O)[C@@H]1CCCN1C(=O)CNC(=O)[C@H](CCCCN)NC(=O)[C@@H]1CSSC[C@H](NC(=O)[C@H](CCCNC(=N)N)NC(=O)[C@@H]2CCC(=O)N2)C(=O)N[C@@H](CCCNC(=N)N)C(=O)N[C@@H](CC(C)C)C(=O)N[C@@H](CO)C(=O)N1)C(=O)N[C@H](C)C(=O)N[C@H](Cc1ccccc1)C(=O)O [Example 21, pE-R-C*-R-L-S-C*-K-G-P-(D-Nle)-a-f-OH] ([pGlu]RCRLSCKGP[dNle][dA][dF]-OH; disulfide 3-7), the half-life was > 1000 min.
For CCCC[C@@H](NC(=O)[C@@H]1CCCN1C(=O)CNC(=O)[C@H](Cc1ccccc1)NC(=O)[C@@H]1CSSC[C@H](NC(=O)[C@H](CCCNC(=N)N)NC(=O)[C@@H]2CCC(=O)N2)C(=O)N[C@@H](CCCNC(=N)N)C(=O)N[C@@H](CC(C)C)C(=O)N[C@@H](CO)C(=O)N1)C(=O)N[C@H](C)C(=O)N[C@H](Cc1ccccc1)C(=O)O [Example 22, pE-R-C*-R-L-S-C*-F-G-P-(D-Nle)-a-f-OH] ([pGlu]RCRLSCFGP[dNle][dA][dF]-OH; disulfide 3-7), the half-life was > 1000 min.
Work on CCCC[C@@H](NC(=O)[C@@H]1CCCN1C(=O)[C@@H](C)NC(=O)[C@H](CCCCN)NC(=O)[C@@H]1CSSC[C@H](NC(=O)[C@H](CCCNC(=N)N)NC(=O)[C@@H]2CCC(=O)N2)C(=O)N[C@@H](CCCNC(=N)N)C(=O)N[C@@H](CC(C)C)C(=O)N[C@@H](CO)C(=O)N1)C(=O)N[C@H](C)C(=O)N[C@H](Cc1ccccc1)C(=O)O [Example 23, pE-R-C*-R-L-S-C*-K-a-P-(D-Nle)-a-f-OH] ([pGlu]RCRLSCK[dA]P[dNle][dA][dF]-OH; disulfide 3-7) yielded a half-life of 3160 min.

Same assay, conditions: rat, read-out: Surrogate activity-based Plasma stability t½
With CCCC[C@H](NC(=O)[C@@H]1CCCN1C(=O)CNC(=O)[C@H](CCCCN)NC(=O)[C@@H]1CSSC[C@H](NC(C)=O)C(=O)N[C@@H](CCCNC(=N)N)C(=O)N2CCC[C@H]2C(=O)N[C@@H](CCCNC(=N)N)C(=O)N[C@@H](CC(C)C)C(=O)N[C@@H](CO)C(=O)N1)C(=O)N1CCC[C@H]1C(=O)N(C)CCc1ccccc1 [Example 9, Ac-C*-R-P-R-L-S-C*-K-G-P-Nle-P-NMe(Phenethyl)] (Ac-CRPRLSCKGP[Nle]P-{N(Me)CH2CH2Ph}; disulfide 1-7) the half-life was 109 min.
